Results as given in patent publication US11065253B2, “Arylquinazolines” (Merck Patent GmbH, priority 2013, dated 2021).

Tested on: phospho-serine 2056 DNA-PK in HCT116 cells
Experiment: DNA-PK phosphorylation at serine 2056 (cellular), ELISA in bleomycin-treated HCT116 cells
Format: cell-based
Settings: Homo sapiens, HCT-116, 6 h, cellular; HCT116 cells, 10 μM bleomycin, six hours; read-out: IC50 pDNA-PK
How it was run: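 Test compounds and bleomycin (10 μM) are added to adherent HCT116 cells for 6 h. Detection uses an HRP-based chemiluminescent ELISA, with phospho-DNA-PK signals standardised to total protein.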

Cc1nccnc1C(O)c1ccc(F)c(-c2ncnc3cc(N4CCOCC4)ccc23)c1 (stereo not drawn) [Example 78, [4-Fluoro-3-(7-morpholin-4-yl-quinazolin-4-yl)phenyl]-(3-methylpyrazin-2-yl)-methanol] and OC(c1ccc(F)c(-c2ncnc3cc(N4CCOCC4)ccc23)c1)c1nccnc1Cl (stereo not drawn) [Example 54, (3-Chloro-pyrazin-2-yl)-[4-fluoro-3-(7-morpholin-4-yl-quinazolin-4-yl)phenyl]-methanol] cannot be ordered by IC50: under 0.5 µM for the first, under 0.5 µM for the second.

Compared with OC(c1cc(-c2ncnc3cc(N4CCOCC4)ccc23)c(F)cc1Cl)c1nccnc1Cl (stereo not drawn) [Example 64, [2-Chloro-4-fluoro-5-(7-morpholin-4-yl-quinazolin-4-yl)phenyl]-(3-chloropyrazin-2-yl)-methanol], NCCn1nc(C(O)c2cc(-c3ncnc4cc(N5CCOCC5)ccc34)c(F)cc2Cl)ccc1=O (stereo not drawn) [Example 94, 2-(2-Amino-ethyl)-6-{[2-Chloro-4-fluoro-5-(7-morpholin-4-yl-quinazolin-4-yl)phenyl]-hydroxy-methyl}-2H-pyridazin-3-one] is higher in IC50: under 0.5 µM for the first, 10 to 30 µM for the second.

Compared with COc1ccc(C(O)c2ccc(F)c(-c3ncnc4cc(N5CCOCC5)ccc34)c2)nn1 (stereo not drawn) [Example 74, [4-Fluoro-3-(7-morpholin-4-yl-quinazolin-4-yl)phenyl]-(6-methoxypyridazin-3-yl)methanol], OC(c1ccc(F)c(-c2ncnc3cc(N4CCOCC4)ccc23)c1)c1cccnn1 (stereo not drawn) [Example 65, [4-Fluoro-3-(7-morpholin-4-yl-quinazolin-4-yl)phenyl]-pyridazin-3-ylmethanol] is higher in IC50: under 0.5 µM for the first, 0.5 to 5 µM for the second. The first is the more potent here.

First: COc1cnc(Cl)c(C(O)c2ccc(F)c(-c3ncnc4cc(N5CCOCC5)ccc34)c2)c1 (stereo not drawn) [Example 22, (2-Chloro-5-methoxy-pyridin-3-yl)-[4-fluoro-3-(7-morpholin-4-yl-quinazolin-4-yl)phenyl]-methanol]
Second: COc1ccnnc1C(O)c1ccc(F)c(-c2ncnc3cc(N4CCOCC4)ccc23)c1 (stereo not drawn) [Example 18, [4-Fluoro-3-(7-morpholin-4-yl-quinazolin-4-yl)phenyl]-(4-methoxy-pyridazin-3-yl)methanol]
The IC50 of the first is lower: under 0.5 µM for the first, 0.5 to 5 µM for the second.

Same assay, conditions: Homo sapiens, HCT-116, cellular DNA-PK phosphorylation at serine 2056, HCT116 cells; read-out: IC50 pDNA-PK

Cn1c(C(O)c2ccc(F)c(-c3ncnc4cc(N5CCOCC5)ccc34)c2)cccc1=O (stereo not drawn) [Example 375, 6-{[4-Fluoro-3-(7-morpholin-4-yl-quinazolin-4-yl)-phenyl]hydroxy-methyl}-1-methyl-1H-pyridin-2-one (Ena 2)] and OC(c1cc(-c2ncnc3cc(N4CCOCC4)ccc23)ccc1F)c1cccc2nncn12 (stereo not drawn) [Example 373, [2-Fluoro-5-(7-morpholin-4-yl-quinazolin-4-yl)-phenyl]-[1,2,4]-triazolo[4,3-a]pyridin-5-ylmethanol] fall in the same range of IC50: 0.5 to 5 µM for the first, 0.5 to 5 µM for the second.

Same assay, conditions: Homo sapiens, HCT-116, phospho-serine 2056 DNA-PK, bleomycin-treated HCT116 cells; class symbols A-D; read-out: IC50 pDNA-PK

First: Cn1nc(C(O)c2cc(-c3ncnc4cc(N5CCOCC5)ccc34)c(F)cc2F)ccc1=O (stereo not drawn) [Example 219, 6-{[2,4-Difluoro-5-(7-morpholin-4-yl-quinazolin-4-yl)-phenyl]hydroxy-methyl}-2-methyl-2H-pyridazin-3-one]
Second: N#CCOc1ccc(C(O)c2cc(-c3ncnc4cc(N5CCOCC5)ccc34)c(F)cc2Cl)nn1 (stereo not drawn) [Example 119, (6-{[2-Chloro-4-fluoro-5-(7-morpholin-4-yl-quinazolin-4-yl)-phenyl]hydroxy-methyl}pyridazin-3-yl-oxy)acetonitrile]
The IC50 of the first is higher: 0.5 to 5 µM for the first, under 0.5 µM for the second.

First: OC(c1ccc(F)c(-c2ncnc3cc(N4CCOCC4)ccc23)c1)c1ccc(OC(F)F)nn1 (stereo not drawn) [Example 121, (6-Difluoro-methoxy-pyridazin-3-yl)-[4-fluoro-3-(7-morpholin-4-yl-quinazolin-4-yl)-phenyl]methanol]
Second: OCCOc1nccnc1C(O)c1ccc(F)c(-c2ncnc3cc(N4CCOCC4)ccc23)c1 (stereo not drawn) [Example 105, 2-(3-{[4-fluoro-3-(7-morpholin-4-yl-quinazolin-4-yl)-phenyl]hydroxy-methyl}pyrazin-2-yl-oxy)ethanol]
The IC50 of the first is lower: 0.5 to 5 µM for the first, 10 to 30 µM for the second.

Compared with COCCOc1ccc(C(O)c2cc(-c3ncnc4cc(N5CCOCC5)ccc34)c(F)cc2Cl)nn1 (stereo not drawn) [Example 112, [2-Chloro-4-fluoro-5-(7-morpholin-4-yl-quinazolin-4-yl)-phenyl]-[6-(2-methoxyethoxy)-pyridazin-3-yl]-methanol], COc1ccc(C(O)(c2cc(-c3ncnc4cc(N5CCOCC5)ccc34)c(F)cc2Cl)C(F)F)nn1 (stereo not drawn) [Example 123, 1-[2-Chloro-4-fluoro-5-(7-morpholin-4-yl-quinazolin-4-yl)-phenyl]-2,2-difluoro-1-(6-methoxy-pyridazin-3-yl)-ethanol] is higher in IC50: 0.5 to 5 µM for the first, 10 to 30 µM for the second. The first is the more potent here.

First: OC(c1ccc(F)c(-c2ncnc3cc(N4CCOCC4)sc23)c1)c1nccs1 (racemic) [Example 144, [4-Fluoro-3-(6-morpholin-4-yl-thieno[3,2-d}-pyrimidin-4-yl)-phenyl]thiazol-2-yl-methanol]
Second: OC(c1cccc(-c2ncnc3cc(N4CCOCC4)ccc23)c1)c1nccs1 (stereo not drawn) [Example 150, [3-(7-Morpholin-4-ylquinazolin-4-yl)-phenyl]thiazol-2-yl-methanol]
The IC50 of the first is lower: 0.5 to 5 µM for the first, 5 to 10 µM for the second. The first is the more potent here.

Same assay, conditions: Homo sapiens, HCT-116, phospho-serine 2056 DNA-PK, bleomycin-treated HCT116 cells; read-out: IC50 pDNA-PK

First: OC(c1cc(-c2ncnc3cc(N4CCOCC4)ccc23)ccc1Cl)c1ncnn2cccc12 (stereo not drawn) [Example 362, [2-Chloro-5-(7-morpholin-4-yl-quinazolin-4-yl)-phenyl]pyrrolo[2,1-f]-[1,2,4]triazin-4-yl-methanol]
Second: Oc1ncnc(C(O)c2cc(-c3ncnc4cc(N5CCOCC5)ccc34)ccc2Cl)c1Cl (stereo not drawn) [Example 330, 5-Chloro-6-{[2-chloro-5-(7-morpholin-4-yl-quinazolin-4-yl)-phenyl]hydroxy-methyl}pyrimidin-4-ol]
The IC50 of the first is lower: 0.5 to 5 µM for the first, 10 to 30 µM for the second. The first is the more potent here.

First: Cc1cnc(C(O)c2ccc(F)c(-c3ncnc4cc(N5CCOCC5)ccc34)c2)c(C)n1 (stereo not drawn) [Example 354, (3,5-Dimethyl-pyrazin-2-yl)-[4-fluoro-3-(7-morpholin-4-yl-quinazolin-4-yl)-phenyl]methanol]
Second: O=c1[nH]nc(C(O)c2ccc(F)c(-c3ncnc4cc(N5CCOCC5)ccc34)c2)c2ccsc12 (stereo not drawn) [Example 338, 4-[[4-Fluoro-3-(7-morpholino-quinazolin-4-yl)-phenyl]hydroxy-methyl]-6H-thieno[2,3-d}-pyridazin-7-one]
The IC50 of the first is lower: under 0.5 µM for the first, 0.5 to 5 µM for the second.

Compared with NC(=O)C(c1ccc(F)c(-c2ncnc3cc(N4CCOCC4)ccc23)c1)c1cncc(F)c1Cl (stereo not drawn) [Example 322, 2-(4-Chloro-5-fluoro-pyridin-3-yl)-2-[4-fluoro-3-(7-morpholin-4-yl-quinazolin-4-yl)-phenyl]acetamide], NC(=O)C(c1cncc(Cl)c1)c1ccc(F)c(-c2ncnc3cc(N4CCOCC4)ccc23)c1 (stereo not drawn) [Example 297, 2-(5-Chloro-pyridin-3-yl)-2-[4-fluoro-3-(7-morpholin-4-yl-quinazolin-4-yl)-phenyl]acetamide] is higher in IC50: 0.5 to 5 µM for the first, 10 to 30 µM for the second. The first is the more potent here.

Compared with NC(=O)C(c1cccnc1)c1cc(-c2ncnc3cc(N4CCOCC4)ccc23)c(F)cc1Cl (stereo not drawn) [Example 293, 2-[2-Chloro-4-fluoro-5-(7-morpholin-4-yl-quinazolin-4-yl)-phenyl]-2-pyridin-3-ylacetamide], Cn1c(C(C(N)=O)c2cc(-c3ncnc4cc(N5CCOCC5)ccc34)c(F)cc2Cl)cccc1=O (stereo not drawn) [Example 312, 2-[2-Chloro-4-fluoro-5-(7-morpholin-4-yl-quinazolin-4-yl)-phenyl]-2-(1-methyl-6-oxo-1,6-dihydro-pyridin-2-yl)-acetamide] is higher in IC50: 5 to 10 µM for the first, 10 to 30 µM for the second.

First: COc1ccc(C(O)c2cc(-c3ncnc4cc(N5CCOCC5)ccc34)ccc2F)nn1 (stereo not drawn) [Example 357, [2-Fluoro-5-(7-morpholin-4-yl-quinazolin-4-yl)-phenyl]-(6-methoxy-pyridazin-3-yl)-methanol]
Second: NC(=O)c1cncc(C(C(N)=O)c2ccc(F)c(-c3ncnc4cc(N5CCOCC5)ccc34)c2)n1 (stereo not drawn) [Example 292, 6-{Carbamoyl-[4-fluoro-3-(7-morpholin-4-yl-quinazolin-4-yl)-phenyl]methyl}-pyrazine-2-carboxylic acid amide]
The IC50 of the first is lower: 0.5 to 5 µM for the first, 10 to 30 µM for the second.

Same assay, conditions: cellular DNA-PK phosphorylation at serine 2056, HCT116 cells; read-out: IC50 pDNA-PK

With Cn1c(C(O)c2cc(-c3ncnc4cc(N5CCOCC5)ccc34)c(F)cc2F)cccc1=O (stereo not drawn) [Example 436, 6-{[2,4-Difluoro-5-(7-morpholin-4-yl-quinazolin-4-yl)-phenyl]hydroxy-methyl}-1-methyl-1H-pyridin-2-one] the IC50 was 0.5 to 5 µM.

Same assay, conditions: cellular; HCT116 cells, 10 μM bleomycin, six hours; read-out: IC50 pDNA-PK

Cn1nc(C(O)c2cc(-c3ncnc4cc(N5CCOCC5)ccc34)c(F)cc2Cl)ccc1=O (stereo not drawn) [Example 45, 6-{[2-Chloro-4-fluoro-5-(7-morpholin-4-yl-quinazolin-4-yl)phenyl]-hydroxymethyl}-2-methyl-2H-pyridazin-3-one] and OC(c1ccc(F)c(-c2ncnc3cc(N4CCOCC4)sc23)c1)c1nccnc1Cl (single isomer, unassigned) [Example 24, (3-Chloro-pyrazin-2-yl)-[4-fluoro-3-(6-morpholin-4-yl-thieno-[3,2-d}pyrimidin-4-yl)-phenyl]methanol] cannot be ordered by IC50: under 0.5 µM for the first, under 0.5 µM for the second.

Same assay, conditions: phospho-serine 2056 DNA-PK, bleomycin-treated HCT116 cells; class symbols A-D; read-out: IC50 pDNA-PK

Compared with Cc1nc(C(O)c2cnc(F)c(-c3ncnc4cc(N5CCOCC5)ncc34)c2)sc1C (stereo not drawn) [Example 203, (4,5-Dimethyl-thiazol-2-yl)-[6-fluoro-5-(7-morpholin-4-yl-pyrido[4,3-d}-pyrimidin-4-yl)-pyridin-3-yl]-methanol], CC(C#N)Oc1ccc(C(O)c2cc(-c3ncnc4cc(N5CCOCC5)ccc34)c(F)cc2Cl)nn1 (single isomer, unassigned) [Example 102, 2-(6-{[2-Chloro-4-fluoro-5-(7-morpholin-4-yl-quinazolin-4-yl)-phenyl]hydroxy-methyl}pyridazin-3-yloxy)propionitrile] is lower in IC50: 10 to 30 µM for the first, under 0.5 µM for the second. The second is the more potent here.
